The text below walks through data of paper PMC10574761, “Novel 1,2,3-Triazole-Containing Quinoline–Benzimidazole Hybrids: Synthesis, Antiproliferative Activity, In Silico ADME Predictions, and Docking” (Molecules, 2023).

SMILES strings stand for the structures. A value given as a limit tells only on which side of the number the result lay.

Broadly, the IC50 is the concentration that inhibits the measured activity by half. Low values mean inhibition by little substance, high ones a need for much substance. One may read the melting point as the temperature, or range, at which the solid turns liquid.

The subject of one data set is Hut78 (T-cell lymphoma). The data set is described as follows: MTT proliferation assay, HuT78. It counts as cell-based, human. Conditions: for IC50: Homo sapiens, HuT78, 72 h treatment, MTT. How it is done: (§1) The effect of the new synthesized compounds was tested on five human tumor cell lines, HeLa (human cervical adenocarcinoma; from ATCC), CaCo-2 (human colorectal adenocarcinoma), HL-60 (acute promyelocytic leukemia), HuT78 (T-cell lymphoma) and THP-1 (acute monocytic leukemia), and on one non-tumor cell line, MRC-5 (human fetal lung fibroblasts). The MRC-5 cells were used between 24 and 26 passages. The cells were cultured in two different types of media: DMEM (Gibco, EU) and RPMI 1640 (Gibco, EU). Both media were supplemented with 2 mM glutamine, fetal bovine serum (10%; heat inactivated) and antibiotics (100 U penicillin and 0.1 mg streptomycin). RPMI 1640 was additionally supplemented with 10 mM HEPES and 1 mM sodium pyruvate. The cells growing in a monolayer were cultured in DMEM, while the cells growing in suspension were cultured in RPMI 1640. The cells were grown in humidified atmosphere under the conditions of 37 °C/5% CO2 gas in the CO2 incubator (IGO 150 CELLlife^TM, JOUAN, Thermo Fisher Scientific, Waltham, MA, USA).
(§2) Growth-inhibitory activity was assessed using a slightly modified procedure based on the National Cancer Institute’s protocol. Briefly, the cells were seeded in 96-well microtiter plates and incubated for 24 h. They were then treated with 10^−7 to 10^−4 M concentrations of the tested compounds for an additional 72 h. After the treatment period, the effects of the tested compounds on the growth rate of the cells were examined using the MTT assay. Absorbance was measured at 595 nm using a microplate reader. […] The selectivity index was calculated according to the following formula: SI=IC50 value of normal cell line/IC50 value of cancer cell line
(§3) The effect of each concentration was analyzed by plotting the logarithm of the concentration of the evaluated compound against the corresponding percentage inhibition value using least squares.
In general terms: Tetrazolium assays rely on reduction of a dye to a coloured formazan, in cell work by metabolically active cells.

The subject of data set [1] is MRC-5 (human fetal lung fibroblasts, non-tumor). In words: MTT proliferation assay, MRC-5. Conditions: MRC5, 72 h treatment. The class given is cell-based. As for the experimental part:
as §1, §2, §3

Data set [2] relates to HL-60 (acute promyelocytic leukemia). In words: MTT proliferation assay, HL-60. The class given is cell-based. Conditions: Homo sapiens, 72 h treatment. As for the experimental part:
as §1, §2, §3

The subject of data set [3] is HeLa (human cervical adenocarcinoma). In words: MTT proliferation assay, HeLa. The note with it: 72 h treatment. The class given is cell-based. How it is done: as §1, §2, §3
For another data set, the system named is HuT78 cells. In words: Cell cycle analysis by flow cytometry (PI staining). It counts as cell-based, human. The note with it: 24 h, p < 0.05. As for the experimental part: The cells were exposed to the compounds for 24 h, collected, washed with PBS, fixed with 70% ethanol and stored at −20 °C until analysis. On the day of analysis, the cell pellets were washed twice with PBS, resuspended in 1 mg/mL PI and 0.2 mg/mL RNase A and left in a dark/cold atmosphere for 30 min. The stained cells were analyzed using FACSCalibur (Becton Dickinson, Franklin Lakes, NJ, USA) flow cytometer. Tests were performed in duplicate and repeated twice. FlowJo software, version 10.2., was adapted for the analysis of DNA histograms.
[…] 13.5 (TIBCO Software Inc., Tulsa, USA) was used for the statistical analysis of the results. Student’s t test was used for data analysis. Differences were considered statistically significant at p < 0.05.
A general note: In flow cytometry, cells or beads pass a laser one at a time.

For data set [4], the system named is THP-1 (acute monocytic leukemia). The data set is described as follows: MTT proliferation assay, THP-1. It counts as cell-based, human. Conditions: for IC50: Homo sapiens, THP-1, 72 h treatment, MTT. How it is done:
as §1, §2, §3

Data set [5] deals with CaCo-2 (human colorectal adenocarcinoma). The data set is described as follows: MTT proliferation assay, CaCo-2. The class given is cell-based. The note with it: 72 h treatment. How it is done:
as §1, §2, §3

Setting [6] is: SI = IC50 of normal cell line (MRC-5) / IC50 of cancer cell line.

As to `CCCNC(=N)c1ccc2[nH]c(-c3ccc(OCc4cn(-c5ccnc6cc(Cl)ccc56)nn4)c(Br)c3)nc2c1.Cl.Cl.Cl` [Compound 10e, 2-(3-bromo-4-{[1-(7-chloroquinolin-4-yl)-1H-1,2,3-triazol-4-yl]methoxy}phenyl)-N-propyl-1H-benzo[d]imidazol-5-carboximidamide trihydrochloride], the IC50 in the data set with Hut78 (T-cell lymphoma) was 9.68 µM; in data set [1] it was > 100 µM; in data set [2], 93.2 µM; in data set [3], > 100 µM; in data set [4], > 100 µM; in data set [5], > 100 µM. Also, in the data set with HuT78 cells (HuT-78, 5 µM), the “increase in the aggregation of cells in the subG0/G1 phase” value is recorded as “more than threefold”.
On to `COc1ccc2[nH]c(-c3ccc(OCc4cn(-c5ccnc6cc(Cl)ccc56)nn4)cc3)nc2c1` [Compound 9c, 7-chloro-4-(4-{[4-(5-methoxy-1H--benzo[d]imidazol-2-yl)phenoxy]methyl}-1H-1,2,3-triazol-1-yl)quinoline], for which the melting point fell in the range of 85 to 86 °C. In the data set with Hut78 (T-cell lymphoma), this molecule showed a concentration for half-maximal inhibition (IC50) of 0.2 µM. Further, in the data set on Hut78 (T-cell lymphoma) (setting [6]), the “selectivity index (SI) for HuT78 cells” value is given as 13.55. In data set [1], this molecule returned a concentration for half-maximal inhibition (IC50) of 2.71 µM. The same molecule yielded a half-maximal inhibitory concentration (IC50) in data set [2] of 1.02 µM. Also, the IC50 in data set [3] is 7.53 µM. Moreover, the “enrichment of the S fraction compared to control cells” value in the data set on HuT78 cells (HuT-78, 0.5 µM) was 31%. This molecule had a half-inhibitory concentration (IC50) in data set [4] of 0.18 µM. The “selectivity index (SI) for THP-1 cells” value in data set [4] (setting [6]) is on record as 15. The same molecule yielded an IC50 in data set [5] of 8.3 µM.
On to `CCCNC(=N)c1ccc2[nH]c(-c3ccc(OCc4cn(CCNc5ccnc6cc(Cl)ccc56)nn4)cc3)nc2c1.Cl.Cl.Cl` [Compound 14e, 2-{4-[(1-{2-[(7-chloroquinolin-4-yl)amino]ethyl}-1H-1,2,3-triazol-4-yl)methoxy]phenyl}-N-propyl-1H-benzo[d]imidazol-5-carboximidamide trihydrochloride], for which the melting point was 209 to 211 °C. Half-maximal inhibition in the data set on Hut78 (T-cell lymphoma) (IC50) was put at 10.9 µM. Further, in data set [1], the IC50 was > 100 µM. For the same molecule, the 50% inhibitory concentration (IC50) in data set [2] is > 100 µM. Moreover, the 50% inhibitory concentration (IC50) in data set [3] was > 100 µM. The “increase of the proportion of cells in subG0/G1 phase compared to untreated cells” value in the data set on HuT78 cells (HuT-78, 5 µM) was 68%. In addition, in data set [4], the IC50 is > 100 µM. The IC50 in data set [5] is > 100 µM.
Molecule `CCCNC(=N)c1ccc2[nH]c(-c3ccc(OCc4cn(CCNc5ccnc6cc(Cl)ccc56)nn4)c(Br)c3)nc2c1.Cl.Cl.Cl` [Compound 15e, 2-{3-bromo-4-[(1-{2-[(7-chloroquinolin-4-yl)amino]ethyl}-1H-1,2,3-triazol-4-yl)methoxy]phenyl}-N-propyl-1H-benzo[d]imidazol-5-carboximidamide trihydrochloride] came in with a melting point of 169 to 171 °C. It took 7.83 µM to reach half-maximal inhibition with Hut78 (T-cell lymphoma) (IC50). For the same molecule, in data set [1], the IC50 was > 100 µM. Also, the IC50 in data set [2] is > 100 µM. Also, in data set [3], the half-inhibitory concentration (IC50) was > 100 µM. In the data set with HuT78 cells (HuT-78, 5 µM), the “increase of the proportion of cells in subG0/G1 phase compared to untreated cells” value is 36%. The half-inhibitory concentration (IC50) in data set [4] is > 100 µM. Further, in data set [5], the IC50 was > 100 µM.
Molecule `Clc1ccc2c(NCCn3cc(COc4ccc(-c5nc6ccccc6[nH]5)cc4Br)nn3)ccnc2c1` [Compound 15a, N-[2-(4-{[4-(1H-benzo[d]imidazol-2-yl)-2-bromophenoxy]methyl}-1H-1,2,3-triazol-1-yl)ethyl]-7-chloroquinolin-4-amine] displayed a melting point of 155 to 157 °C. In addition, the IC50 in the data set with Hut78 (T-cell lymphoma) is 7.88 µM. Besides, in data set [1], the half-maximal inhibitory concentration (IC50) is > 100 µM. Moreover, the IC50 in data set [2] amounted to 11.6 µM. Further, the half-inhibitory concentration (IC50) in data set [3] is > 100 µM. The same molecule displayed a concentration for half-maximal inhibition (IC50) in data set [4] of 4.66 µM. In addition, the IC50 in data set [5] is > 100 µM.
In turn, `Cl.Cl.Cl.N=C(N)c1ccc2[nH]c(-c3ccc(OCc4cn(-c5ccnc6cc(Cl)ccc56)nn4)c(Br)c3)nc2c1` [Compound 10d, 2-(3-bromo-4-{[1-(7-chloroquinolin-4-yl)-1H-1,2,3-triazol-4-yl]methoxy}phenyl)-1H-benzo[d]imidazol-5-carboximidamide trihydrochloride] had a melting point of 200 to 202 °C. Moreover, the IC50 with Hut78 (T-cell lymphoma) was > 100 µM. For the same molecule, the concentration for half-maximal inhibition (IC50) in data set [1] is > 100 µM. Also, in data set [2], the 50% inhibitory concentration (IC50) is > 100 µM. The IC50 in data set [3] is > 100 µM. Besides, the IC50 in data set [4] is > 100 µM. In data set [5], the IC50 is > 100 µM.
